Data published in BindingDB's records for doi:10.1042/0264-6021:3510095 (University of Dundee, 2001).

Assay: Inhibition of His-tagged human PDK1 expressed in Sf21 cells

CCCCCCOC(=O)[C@@]1(O)C[C@H]2O[C@]1(C)n1c3ccccc3c3c4c(c5c6ccccc6n2c5c31)C(=O)NC4 [KT-5720]
IC50: 300 nM
